Results on one compound are retold here after patent US20260327655A1, “SMALL-MOLECULE REGULATED ALTERNATIVE SPLICING” (priority 2023, published 2026).

Experiment [1] has as its system RS1-10, NIH-3T3 cells. Put plainly: RS1-10 performance in NIH-3T3 cells. The format is cell-based, mouse. The note with it: CMV promoter, 18 hours, FIG. 10B. As to the method: Human cell line HEK-293T cells or NIH-3T3 mouse fibroblast cell line cells were cultured in DMEM+10% FBS, collected after trypsinization, and then dispensed into 96-well plates (cell culture-treated). Each well of the plate was seeded with 1.0×10^5 cells in 100 μL culture medium. After a 1-hour incubation in the tissue culture incubator (5% CO2, 37 degrees C.), plasmid DNA was complexed with a transfection reagent, such as Lipofectamine 3000, and added to respective wells on the plate. Each well received an equivalent of 100 ng of plasmid DNA complexed with 0.15 μL Lipofectamine 3000. Triplicate wells were used for each condition tested in the experiment. The plasmid utilized in the experiments for HEK-293T cells and NIH-3T3 mouse fibroblast cells encoded a CMV promoter upstream of the RS1-10 construct that controlled the expression of a Firefly Luciferase gene followed by a SV40 polyadenylation signal. After a 10-minute incubation at room temperature, either DMSO vehicle or 24 A at specified doses was added to the wells of the plate. Plates were then incubated for 18 hours in a tissue culture incubator. Endpoint analysis was performed by adding 100 uL of a Luciferase substrate, such as Steady-Luc Firefly Luciferase substrate, to each well of the assay plate. […] Finally, the luminescent signal from each well was measured with a plate reader. […]

Experiment [2] deals with RS1-10. Put plainly: Dose-response profiling assay, RS1-10 Flp-In-293 cell line. The experiment is classed as cell-based. The following applies: 18 hours, FIGS. 9D-9F. As to the method: Single-copy insertion of an switch construct and subsequent cell-line generation was performed in Flp-In-293 cells according to manufacturer's protocols. The RS1-10 sequence fused to a Firefly Luciferase gene was cloned into a Flp-In compatible pcDNA5/FRT expression vector with a CMV promoter and BGH polyadenylation signal. Resulting Flp-In cell line carried a single-copy expression cassette (RSwitch-controlled) integrated into the genome. The RS1-10 Flp-In cell line was cultured in DMEM+10% FBS, collected after trypsinization, and then dispensed into 96-well plates (cell culture-treated). Each well of the plate was seeded with 1.0×10^5 cells in 100 μL culture medium. Subsequently, either DMSO vehicle or a splice modulator compound at specified doses was added to the wells of the plate. Triplicate wells were used for each condition tested in the experiment. Plates were then incubated for 18 hours in a tissue culture incubator (5% CO2, 37° C.). Endpoint analysis was performed by adding 100 uL of a Luciferase substrate, such as Steady-Luc Firefly Luciferase substrate, to each well of the assay plate. The liquid contents of each was transferred to a 96-well plate, mixed again for 2 min on an orbital shaker, and incubated at room temperature for 5 min. Finally, the luminescent signal from each well was measured with a plate reader. Each plotted data point on a graph in a figure represents a mean of 3 wells+/−standard deviation normalized to vehicle controls. A nonlinear regression curve fit of the plotted data points was generated in graphing software.

Turning to `CCN1CC(c2ccc(-c3ccc(-c4ccc5nn(C)cc5c4)cc3O)nn2)C1` [Compound 24A, 2-[6-(1-ethylazetidin-3-yl)pyridazin-3-yl]-5-(2-methyl-2H-indazol-5-yl)phenol], the fold-induction of luciferase entry in experiment [1] is on record as “increasing fold-induction of luciferase with increasing concentrations of 24 A”. In addition, the “fold-induction of luciferase signal, dose response” value in experiment [2] is “increase in fold-induction of luciferase signal with increasing concentrations”.
